Laboratory results published in PubChem BioAssay (NCI).
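Interpolation was linear, between the two tested concentrations surrounding the appropriate level; five concentrations were tested over 48 hours in 96-well plates. GI50: concentration for 50% inhibition of growth. TGI denotes the concentration required for complete inhibition of growth.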

How the values were obtained:
Assay in all cases: NCI tumour cell line growth inhibition, 48 h
BT-549 breast = system: BT-549 breast
LOX IMVI melanoma = system: LOX IMVI melanoma
SK-MEL-2 melanoma = system: SK-MEL-2 melanoma
HOP-62 NSCLC = system: HOP-62 NSCLC
SNB-19 CNS = system: SNB-19 CNS
ACHN renal = system: ACHN renal
SK-MEL-28 melanoma = system: SK-MEL-28 melanoma
CAKI-1 renal = system: CAKI-1 renal
MDA-MB-231 breast = system: MDA-MB-231 breast
A549 NSCLC = system: A549 NSCLC
KM12 colon = system: KM12 colon
HCT-15 colon = system: HCT-15 colon
CCRF-CEM leukemia = system: CCRF-CEM leukemia
HS 578T breast = system: HS 578T breast
HL-60(TB) leukemia = system: HL-60(TB) leukemia
NCI-H226 lung = system: NCI-H226 lung
UO-31 renal = system: UO-31 renal
UACC-257 melanoma = system: UACC-257 melanoma
MDA-MB-435 = system: MDA-MB-435
HT29 colon = system: HT29 colon
COLO 205 colon = system: COLO 205 colon
HOP-92 NSCLC = system: HOP-92 NSCLC
K-562 leukemia = system: K-562 leukemia
OVCAR-3 ovarian = system: OVCAR-3 ovarian
SF-295 CNS = system: SF-295 CNS
SF-539 CNS = system: SF-539 CNS
TK-10 renal = system: TK-10 renal
SK-MEL-5 melanoma = system: SK-MEL-5 melanoma
M14 melanoma = system: M14 melanoma
SF-268 CNS = system: SF-268 CNS
A498 renal = system: A498 renal
MOLT-4 leukemia = system: MOLT-4 leukemia
U251 CNS = system: U251 CNS
EKVX NSCLC = system: EKVX NSCLC
MALME-3M melanoma = system: MALME-3M melanoma
T-47D breast = system: T-47D breast
NCI-H522 lung = system: NCI-H522 lung
786-0 renal = system: 786-0 renal
SR leukemia = system: SR leukemia
SW-620 colon = system: SW-620 colon
SK-OV-3 ovarian = system: SK-OV-3 ovarian
NCI-H460 lung = system: NCI-H460 lung
IGROV1 ovarian = system: IGROV1 ovarian
OVCAR-4 ovarian = system: OVCAR-4 ovarian
MCF7 breast = system: MCF7 breast
SN12C renal = system: SN12C renal
OVCAR-8 ovarian = system: OVCAR-8 ovarian
RPMI-8226 leukemia = system: RPMI-8226 leukemia
DU-145 prostate = system: DU-145 prostate
RXF 393 renal = system: RXF 393 renal
HCT-116 colon = system: HCT-116 colon

With CCOC(=O)c1c2c(n(CC(C)C)c1C)-c1nc[nH]c1C(=O)C2=O the GI50 (BT-549 breast) was 16.4 µM, the TGI (BT-549 breast) was 30.4 µM and the GI50 (LOX IMVI melanoma) was 7.91 µM. For the same compound, the TGI (LOX IMVI melanoma) was 20.5 µM, the GI50 (SK-MEL-2 melanoma) was 19.4 µM and the TGI (SK-MEL-2 melanoma) was 34 µM. For the same compound, the GI50 (HOP-62 NSCLC) was 19.1 µM, the TGI (HOP-62 NSCLC) was 34.2 µM and the GI50 (SNB-19 CNS) was 16.4 µM. For the same compound, the TGI (SNB-19 CNS) was 30.1 µM, the GI50 (ACHN renal) was 14.2 µM and the TGI (ACHN renal) was 27.2 µM. The GI50 (SK-MEL-28 melanoma) was 19.3 µM, the TGI (SK-MEL-28 melanoma) was 33.4 µM and the GI50 (CAKI-1 renal) was 17.7 µM. For the same compound, the TGI (CAKI-1 renal) was 57.8 µM, the GI50 (MDA-MB-231 breast) was 6.85 µM and the TGI (MDA-MB-231 breast) was 20.1 µM. The GI50 (A549 NSCLC) was 14.9 µM, the TGI (A549 NSCLC) was 28.1 µM and the GI50 (KM12 colon) was 16.9 µM. It also gave a TGI (KM12 colon) of 31.2 µM, a GI50 (HCT-15 colon) of 14.7 µM and a TGI (HCT-15 colon) of 27.9 µM. The GI50 (CCRF-CEM leukemia) was 4.78 µM, the TGI (CCRF-CEM leukemia) was 16.7 µM and the GI50 (HS 578T breast) was 38.9 µM. It also gave a TGI (HS 578T breast) greater than 100 µM, a GI50 (HL-60(TB) leukemia) of 0.388 µM and a TGI (HL-60(TB) leukemia) of 2.82 µM. It also gave a GI50 (NCI-H226 lung) of 15 µM, a TGI (NCI-H226 lung) of 28.5 µM and a GI50 (UO-31 renal) of 16.3 µM. The TGI (UO-31 renal) was 29.9 µM, the GI50 (UACC-257 melanoma) was 18.4 µM and the TGI (UACC-257 melanoma) was 32.3 µM. For the same compound, the GI50 (MDA-MB-435) was 18.2 µM, the TGI (MDA-MB-435) was 32.6 µM and the GI50 (HT29 colon) was 20.4 µM. The TGI (HT29 colon) was 46.5 µM, the GI50 (COLO 205 colon) was 18 µM and the TGI (COLO 205 colon) was 32.3 µM. It also gave a GI50 (HOP-92 NSCLC) of 3.82 µM, a TGI (HOP-92 NSCLC) of 16.2 µM and a GI50 (K-562 leukemia) of 6.74 µM. For the same compound, the TGI (K-562 leukemia) was 20.1 µM, the GI50 (OVCAR-3 ovarian) was 13 µM and the TGI (OVCAR-3 ovarian) was 26.3 µM. It also gave a GI50 (SF-295 CNS) of 19.2 µM, a TGI (SF-295 CNS) of 35.9 µM and a GI50 (SF-539 CNS) of 14 µM. The TGI (SF-539 CNS) was 26.9 µM, the GI50 (TK-10 renal) was 20.5 µM and the TGI (TK-10 renal) was 36.6 µM. For the same compound, the GI50 (SK-MEL-5 melanoma) was 16.2 µM, the TGI (SK-MEL-5 melanoma) was 30.2 µM and the GI50 (M14 melanoma) was 23 µM. For the same compound, the TGI (M14 melanoma) was 40.5 µM, the GI50 (SF-268 CNS) was 15.2 µM and the TGI (SF-268 CNS) was 28.5 µM. The GI50 (A498 renal) was 15.6 µM, the TGI (A498 renal) was 29 µM and the GI50 (MOLT-4 leukemia) was 2.57 µM. For the same compound, the TGI (MOLT-4 leukemia) was 9.45 µM, the GI50 (U251 CNS) was 14.2 µM and the TGI (U251 CNS) was 27.2 µM. For the same compound, the GI50 (EKVX NSCLC) was 15 µM, the TGI (EKVX NSCLC) was 28.2 µM and the GI50 (MALME-3M melanoma) was 21.1 µM. It also gave a TGI (MALME-3M melanoma) of 36.6 µM, a GI50 (T-47D breast) of 3.3 µM and a TGI (T-47D breast) of 14.3 µM. For the same compound, the GI50 (NCI-H522 lung) was 15.7 µM, the TGI (NCI-H522 lung) was 29.4 µM and the GI50 (786-0 renal) was 19.2 µM. It also gave a TGI (786-0 renal) of 33.3 µM, a GI50 (SR leukemia) of 0.384 µM and a TGI (SR leukemia) of 2.15 µM. For the same compound, the GI50 (SW-620 colon) was 20.8 µM, the TGI (SW-620 colon) was 39.1 µM and the GI50 (SK-OV-3 ovarian) was 22.4 µM. The TGI (SK-OV-3 ovarian) was 37.3 µM, the GI50 (NCI-H460 lung) was 16.5 µM and the TGI (NCI-H460 lung) was 30.1 µM. The GI50 (IGROV1 ovarian) was 18.8 µM, the TGI (IGROV1 ovarian) was 36 µM and the GI50 (OVCAR-4 ovarian) was 12.7 µM. The TGI (OVCAR-4 ovarian) was 25.3 µM, the GI50 (MCF7 breast) was 16.3 µM and the TGI (MCF7 breast) was 29.9 µM. For the same compound, the GI50 (SN12C renal) was 13.4 µM, the TGI (SN12C renal) was 26.2 µM and the GI50 (OVCAR-8 ovarian) was 15.8 µM. For the same compound, the TGI (OVCAR-8 ovarian) was 29.3 µM, the GI50 (RPMI-8226 leukemia) was 8.91 µM and the TGI (RPMI-8226 leukemia) was 21.6 µM. For the same compound, the GI50 (DU-145 prostate) was 16.1 µM, the TGI (DU-145 prostate) was 29.6 µM and the GI50 (RXF 393 renal) was 13.9 µM. For the same compound, the TGI (RXF 393 renal) was 26.8 µM, the GI50 (HCT-116 colon) was 5.92 µM and the TGI (HCT-116 colon) was 18.8 µM.
